From US20210317112A1, “HETEROCYCLIC COMPOUNDS AS PESTICIDES” (Bayer Aktiengesellschaft, priority 2017, published 2021)
Like-named read-outs stand apart in the source and are kept apart here.

Assays:
Type in all cases: in vivo
[1] = test system: southern green stink bug (Nezara viridula); experiment: whole plant or invertebrate; details: in Hordeum vulgare, 96 h, read-out: mortality in %
Experimental: Nezara viridula—Spray Test Solvent: 52.5 parts by weight of acetone • 7 parts by weight of dimethylformamide Emulsifier: alkylaryl polyglycolether
(§1) To produce a suitable preparation of active compound, 1 part by weight of active compound is mixed with the stated amount of solvent, and the concentrate is diluted with water, containing an emulsifier concentration of 1000 ppm, to the desired concentration. Ammonium salt and/or penetration enhancer in a dosage of 1000 ppm are added to the desired concentration if necessary.
(§2) Barley plants (Hordeum vulgare) infested with larvae of the southern green stink bug (Nezara viridula) are sprayed with a test solution containing the desired concentration of the active ingredient.
(§3) After 4 days mortality in % is determined. 100% means all the stink bugs have been killed; 0% means none of the stink bugs have been killed.

[2] = test system: brown planthopper (Nilaparvata lugens); experiment: Nilaparvata lugens spray test (solvent 52.5 acetone / 7 DMF); details: 96 h, application rate 500 g/ha, rice plants, after 4 days
Experimental: Nilaparvata lugens—Spray Test Solvent: 52.5 parts by weight of acetone • 7 parts by weight of dimethylformamide Emulsifier: alkylaryl polyglycolether
as §1, with “solvents” for “solvent,”, “and” for “and the concentrate”, “concentration. Further test concentrations are prepared by dilution with emulsifier containing water.” for “concentration.”
Rice plants (Oryza sativa) are treated by being sprayed with the desired concentration of the active compound and are infested with larvae of the brown planthopper (Nilaparvata lugens).
(§4) After 4 days mortality in % is determined. 100% means all planthoppers have been killed and 0% means none of the planthoppers have been killed.

[3] = test system: mustard beetle larvae (Phaedon cochleariae); experiment: Phaedon cochleariae spray test; details: in Brassica rapa, foliar, 168 h, read-out: mortality in %
Experimental: Phaedon cochleariae—Spray Test Solvent: 78.0 parts by weight of acetone • • 1.5 parts by weight of dimethylformamide Emulsifier: alkylarylpolyglycol ether
(§5) To produce a suitable preparation of active compound, 1 part by weight of active compound is mixed with the stated amount of solvents and is diluted with water, containing an emulsifier concentration of 1000 ppm, to the desired concentration. Further test concentrations are prepared by dilution with emulsifier containing water.
Chinese cabbage (Brassica pekinensis) leaf disks are sprayed with a preparation of the active ingredient of the desired concentration. Once dry, the leaf disks are infested with mustard beetle larvae (Phaedon cochleariae).
After 7 days mortality in % is determined. 100% means all beetle larvae have been killed and 0% means none of the beetle larvae have been killed.

[4] = test system: two spotted spidermite (Tetranychus urticae); experiment: whole plant or invertebrate; details: in Phaseolus vulgaris, foliar, 144 h, read-out: mortality in %
Experimental: Tetranychus urticae—Spray Test OP-Resistant Solvent: 78.0 parts by weight acetone • 1.5 parts by weight dimethylformamide Emulsifier: alkylarylpolyglycol ether
as §5
French bean (Phaseolus vulgaris) leaf disks infected with all instars of the two spotted spidermite (Tetranychus urticae), are sprayed with a preparation of the active ingredient of the desired concentration.
After 6 days mortality in % is determined. 100% means all spider mites have been killed and 0% means none of the spider mites have been killed.

[5] = test system: brown planthopper (Nilaparvata lugens); experiment: Nilaparvata lugens spray test (solvent 78.0 acetone / 1.5 DMF); details: 96 h, application rate 500 g/ha, rice plants, after 4 days
Experimental: Nilaparvata lugens—Spray Test Solvent: 78.0 parts by weight of acetone • • 1.5 parts by weight of dimethylformamide Emulsifier: alkylarylpolyglycol ether
as §5
Rice plants (Oryza sativa) are sprayed with a preparation of the active ingredient of the desired concentration and the plants are infested with the brown planthopper (Nilaparvata lugens).
as §4

[6] = test system: southern green stink bug (Nezara viridula); experiment: whole plant or invertebrate; details: in Hordeum vulgare, 96 h, read-out: mortality in %; remark: listed apart in the source
Experimental: Nezara viridula—Spray Test Solvent: 78.0 parts by weight of acetone • • 1.5 parts by weight of dimethylformamide Emulsifier: alkylarylpolyglycol ether
as §5, with “solvent,” for “solvents”, “and the concentrate” for “and”
as §2, §3

[7] = test system: green peach aphid (Myzus persicae); experiment: whole plant or invertebrate; details: po, 120 h, read-out: mortality in %
Experimental: Myzus persicae—Oral Test Solvent: 100 parts by weight acetone
To produce a suitable preparation of active compound, 1 part by weight of active compound is mixed with the stated amount of solvent, and the concentrate is diluted with water to the desired concentration. 50 μl compound solution is filled in microtiter plates and 150 μl IPL41 insect medium (33%+15% sugar) is added to obtain a total volume of 200 μper well. Afterwards the plates are sealed with parafilm through which a mixed population of the green peach aphid (Myzus persicae) can suck on the compound preparation.
(§6) After 5 days mortality in % is determined. 100% means all aphids have been killed and 0% means none of the aphids have been killed.

[8] = test system: green peach aphid (Myzus persicae); experiment: Myzus persicae spray test; details: in Brassica rapa, foliar, 120 h, read-out: mortality in %
Experimental: Myzus persicae—spray test Solvent: 78.0 parts by weight acetone • 1.5 parts by weight dimethylformamide Emulsifier: alkylarylpolyglycol ether
as §5
Chinese cabbage (Brassica pekinensis) leaf disks infected with all instars of the green peach aphid (Myzus persicae), are sprayed with a preparation of the active ingredient of the desired concentration.
as §6

Row | SMILES | mortality at 100 g/ha [1] | mortality at 500 g/ha [1] | mortality at 500 g/ha [2] | mortality at 100 g/ha [3] | mortality at 500 g/ha [3] | mortality at 500 g/ha [4] | mortality at 500 g/ha [5] | mortality at 500 g/ha [6] | mortality at 100 g/ha [4] | mortality at 20 ppm [7] | mortality at 500 g/ha [8]
1 | O=C(Nc1nc(-c2c(F)cccc2F)no1)c1cccnc1C(F)(F)F [Compound I-1-1, N-[3-(2,6-Difluorophenyl)-1,2,4-oxadiazol-5-yl]-2-(trifluoromethyl)nicotinamide] | 100% | 100% | 80% | 100% | 100% | 70% |  |  |  |  | 
2 | O=C(Nc1nc(-c2ccccc2C(F)(F)F)no1)c1cccnc1C(F)(F)F [Compound I-1-8, 2-(trifluoromethyl)-N-{3-[2-(trifluoromethyl)phenyl]-1,2,4-oxadiazol-5-yl}nicotinamide] |  |  |  |  | 100% | 100% | 100% | 90% | 100% |  | 
3 | O=C(Nc1nc(-c2c(F)ccc(Br)c2F)no1)c1cccnc1C(F)(F)F [Compound I-1-12, N-[3-(3-bromo-2,6-difluorophenyl)-1,2,4-oxadiazol-5-yl]-2-(trifluoromethyl)nicotinamide] |  |  |  | 100% | 83% | 100% |  |  | 100% |  | 
4 | N#Cc1c(-c2c(F)cccc2F)nsc1NC(=O)c1cccnc1C(F)(F)F [Compound I-2-1, N-[4-Cyano-3-(2,6-difluorophenyl)-1,2-thiazol-5-yl]-2-(trifluoromethyl)nicotinamide] | 100% | 100% |  |  | 100% |  |  | 100% |  | 90% | 
5 | N#Cc1c(-c2ccccc2Cl)nsc1NC(=O)c1cccnc1Cl [Compound I-2-6, 2-Chloro-N-[3-(2-chlorophenyl)-4-cyano-1,2-thiazol-5-yl]nicotinamide] |  | 100% |  |  | 83% | 70% |  |  |  |  | 100%
6 | N#Cc1c(-c2ccccc2C(F)(F)F)nsc1NC(=O)c1cccnc1Cl [Compound I-2-7, 2-Chloro-N-{4-cyano-3-[2-(trifluoromethyl)phenyl]-1,2-thiazol-5-yl}nicotinamide] |  | 100% |  |  | 100% | 90% |  |  | 90% |  | 
7 | N#Cc1sc(NC(=O)c2cccnc2C(F)(F)F)nc1-c1ccccc1C(F)(F)F [Compound I-3-2, N-{5-Cyano-4-[2-(trifluoromethyl)phenyl]-1,3-thiazol-2-yl}-2-(trifluoromethyl)nicotinamide] | 100% | 100% | 100% | 100% | 100% | 100% |  |  | 100% |  | 
